Laboratory results: US20260337125A1, “RADIOLABELED TYROSINE DERIVATIVE AND APPLICATION THEREOF” (Osaka University, priority 2022, published 2026)

How the values were obtained:
[1] = system: human pancreatic cancer cell line (PANC1); assay: Imaging of mice subcutaneously transplanted with human pancreatic cancer cell line PANC1; format: in vivo, human (PANC1) in Balb/c-nu/nu mice; conditions: 2 hours after administration, 0.5 MBq/0.2 mL per mouse, tail vein
Description: Immunodeficient mice (Balb/c-nu/nu, 5-week-old, male) were habituated for 1 week and then subcutaneously transplanted with a human pancreatic cancer cell line (PANC1, 1×10^7 cells/mouse). After the transplantation, the mice were observed over time until tumor reached a size large enough for imaging (about 1000 mm^3). […] Two hours after administration, the mice were anesthetized by isoflurane inhalation, and planar images were taken using a γ camera (E-cam, Siemens).

[2] = Measurement of accumulated amounts of 211At-labeled compounds in PANC1 tumor-bearing mice; format: in vivo, human (PANC1) in Balb/c-nu/nu mice; conditions: tumor, iv, 0.1 MBq/animal, 0.1 MBq/0.2 mL per mouse, tail vein, read-out: tumor accumulation
Description: Radiation doses before and after the administration were measured, and a difference between them was defined as an injected dose (ID). Ten minutes and one hour after administration, the mice were anesthetized by isoflurane inhalation, the tumors were isolated by autopsy in chronological order, and their radiation doses and weights were measured using a gamma counter (2480 Wizard^2, PerkinElmer) and a semimicro scale (Shimadzu Corporation, readability 10 μg), respectively. For comparison between accumulated amounts, accumulated amounts per unit amount (% ID/g) were calculated.
In Table 1, the amounts of the ^211At-labeled compounds accumulated in tumors of the PANC1 tumor-bearing models (% ID/g) are shown. It should be noted that in Table 1, “OMe” is ^211At-AAMT-OMe, “OEt” is ^211At-AAMT-OEt, “OPr” is ^211At-AAMT-OPr, and “OH” is ^211At-AAMT.

[3] = system: CDDP-resistant A549 (A549 CDDP-r); conditions: 48 hours, 37 °C, Cell counting kit-8
Description: Two days before experiment, A549 and CDDP-resistant A549 (A549 CDDP-r) were each seeded in a 96-well plate at a concentration of 1×10^5 cells/mL. ^211At-AAMT-OMe or ^211At-AAMT adjusted to a predetermined concentration was added to A549 cells and CDDP-resistant A549 cells, respectively, and the cells were cultured (CO2 5%, 37 °C). After the cultivation for 48 hours, Cell counting kit-8 (DOJINDO LABORATORIES) was added. After the addition, the cells were cultured at 37 °C for 1 hour, and cell viability was measured using absorbance at 450 nm as an indicator.

[4] = background art; cited from earlier work

C[C@](N)(Cc1ccc(O)c([At])c1)C(=O)O [^211At-AAMT, astato(^211At)-α-methyl-L-tyrosine, reference compound]
accumulation in tumor site (planar γ camera image) [1]: accumulated in the tumor sites
tissue uptake at 10 min ([2]; 10 minutes after administration): 0.29 %ID/g
tissue uptake at 1 h ([2]; 1 hour after administration): 2.49 %ID/g
cytotoxicity [3]: has cytotoxicity against CDDP-resistant A549 (A549 CDDP-r)
clearance [4]: fast clearance
